# In patent US9101569B2, “Methods for the treatment of insulin resistance” (UNIVERSITE DE GENEVE, priority 2010, dated 2015):
# How the values were obtained:
# [1] = tested on: PPAR-alpha knockout (KO) mice; experiment: Peripheral OT infusion in PPAR-alpha knockout mice; format: in vivo; details: peripheral 50 nmol/day over 3 days
# Procedure: (§1) The beneficial metabolic effects of OT administration were assayed in the same high-fat diet induced obesity model in rats as in Example 1 and in PPAR-alpha knockout mice (Lee et al., 1995, Mol. Cell. Biol., 15(6):3012-22). HFD-induced obese animals, saline or OT groups (see conditions under Example 1) were subcutaneously infused via minipumps (Alzet®, as above). OT was delivered at a dose of 50 nmol/day/rat during 14 days.
# OT was peripherally administered with 50 nmol/day over 3 days in PPAR-alpha knockout (KO) mice and their wild-type littermates. […] Consistently, OT peripheral infusion promoted an increase in the mRNA expression of PPAR-alpha target genes (Acadm, Acox1, Ehhadh, Ucp3) in wild-type mice, while it had no effect in PPAR-alpha knockouts.
# [2] = tested on: enzymes involved in lipid metabolism; experiment: Tissue expression of lipid metabolism enzymes (real-time RT-PCR) after i.c.v. OT infusion; format: in vivo, rat; details: central OT infusion
# HFD-induced obese rats = experiment: High-fat diet-induced obesity rat model, subcutaneous infusion: body weight gain, food intake, body composition; format: in vivo
# Procedure: Another group of the above male Wistar rats were rendered obese as described above and were subcutaneously infused with saline or OT (NeoMPS®, Strasbourg, France) (50 nmol/day/rat) during 14 days.
# as §1
# An EchoMRI-700 quantitative nuclear magnetic resonance (QMR) analyzer (Echo Medical Systems, Houston, Tex.) was used to measure total fat mass and lean body mass in rats at the beginning and the end of the treatment.
# The beneficial metabolic effects of administration of an oxytocin derivative according to the invention (Carbetocin) were assessed in the same rat model of high-fat diet induced obesity as in Example 1. HFD-induced obese animals were subcutaneously infused via minipumps (Alzet®, as above) with saline or carbetocin (Bachem) (5 nmol/day/rat or 50 nmol/day/rat) during 14 days.
# Body composition parameters were measured by quantitative nuclear magnetic resonance as described in Example 3 at the beginning and 10 days of treatment.
compound,measurement,setting,value
"CC[C@H](C)[C@@H]1NC(=O)[C@H](Cc2ccc(O)cc2)NC(=O)[C@@H](N)CSSC[C@@H](C(=O)N2CCC[C@H]2C(=O)N[C@@H](CC(C)C)C(=O)NCC(N)=O)NC(=O)[C@H](CC(N)=O)NC(=O)[C@H](CCC(N)=O)NC1=O [OT, Cys-Tyr-Ile-Gln-Asn-Cys-Pro-Leu-Gly (SEQ ID NO: 1)]",body weight gain,[1],did not modify
same,"mRNA expression of PPAR-alpha target genes (Acadm, Acox1, Ehhadh, Ucp3)",[1],no effect
same,HSL at the protein level,[2],stimulatory effect
same,expression of genes involved in fatty acid β-oxidation,[2]; liver,did not modify
same,food intake,"HFD-induced obese rats; s.c. 50 nmol/day, 14 days",decreased
same,body weight gain,"HFD-induced obese rats; s.c. 50 nmol/day, 14 days, not observed in pair-fed group",decreased
same,fat mass by weighing adipose tissue depots,HFD-induced obese rats; s.c. OT 50 nmol/day,food intake-independent decrease
